Holding throughout (test): Deferred antagonism assay
One assay concerns Staph. aureus DPC5245. The format is cell-based. Particulars: producing strain; diameter of zone minus 5 mm; average of duplicates; St. aureus DPC5245. An outline of the steps:
(§1)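 Producer strains replicated on GM17 agar, grown overnight, then overlaid with soft agar (0.75% w/v) seeded with indicator strain. Zone size = clearing diameter minus 5 mm growth diameter, relative to NZ9800 pCI372nisA control; mean of duplicates.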

The subject of assay [1] is Staph. aureus ST528 (MRSA). The format is cell-based. Particulars: producing strain, diameter of zone minus diameter of bacterial growth (5 mm), average of duplicates. The method in brief:
as §1

Assay [2] concerns Strep. agalactiae ATCC13813. The format is cell-based. Particulars: producing strain, diameter of zone minus 5 mm, average of duplicates.
Another assay concerns C. sporogenes CBC5. The format is cell-based, Clostridium sporogenes. Also on record: key: + = Enhanced bioactivity relative to control; − = Bioactivity equal to or less than control; NA = no activity evident. Particulars: producing strain.
For the next assay, the system named is L. plantarum CBC6. The format is cell-based, Lactobacillus plantarum. Also on record: key: + = Enhanced bioactivity relative to control; − = Bioactivity equal to or less than control; NA = no activity evident. Particulars: producing strain. The method in brief:
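L. lactis NZ9800 strains expressing nisin A hinge variants were replicated or spotted on GM17 agar, grown overnight, then overlaid with 0.75% w/v agar seeded with indicator. Zone size is the clearing diameter minus 5 mm colony growth.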

The subject of a further assay is Listeria innocua FH2117. The format is cell-based. The conditions noted are these: nisin strain. The method, then:
(§2) Deferred antagonism assays were performed by replicating strains on GM17 or GM17 x-gal agar plates and allowing them to grow overnight before overlaying with either GM17/BHI/TS/MH agar (0.75% w/v agar) seeded with the appropriate indicator strain. Zone size was calculated as the diameter of the zone of clearing minus the diameter of bacterial growth (5 mm) For higher throughput screening of N20PXX, XM21VX, XXK22T and XXX banks deferred antagonism assays were performed by replicating strains using a 96 pin replicator (Boekel) or spotting 5 μl of a fresh overnight culture on GM17 agar plates and allowing them to grow overnight. […] Additional sets of indicators were employed to further assess/reassess the bioactivity of a number of strains. […] For well-diffusion assays molten agar was cooled to 48° C. and seeded with the appropriate indicator strain. The inoculated medium was rapidly transferred into sterile Petri plates in 50 ml volumes, allowed to solidify and dried. Wells (4.6 mm in diameter) were then made in the seeded plates. Purified nisin and mutant nisins were resuspended in 0.005% acetic acid, serially diluted, 50 μl volumes were dispensed into the aforementioned wells and the plates incubated at 37° C. overnight. Bioactivity was expressed as arbitrary units/ml (AU/ml) and calculated as the reciprocal of the highest dilution that gave a definite zone multiplied by the conversion factor (i.e. 20 when 50 μl was used) (Ryan et al., 1996).

The subject of assay [3] is Listeria monocytogenes 33007. In kind it is cell-based. Particulars: nisin strain; L. monocytogenes 33007. The method, then:
as §2

The subject of assay [4] is Listeria monocytogenes 33013. In kind it is cell-based. Particulars: nisin strain; L. monocytogenes 33013. The method, then: as §2
Assay [5] has as its system Listeria monocytogenes 33037. In kind it is cell-based. The conditions noted are these: nisin strain; L. monocytogenes 33037. The method, then:
as §2

Assay [6] relates to Listeria monocytogenes 33077. In kind it is cell-based. Particulars: nisin strain; L. monocytogenes 33077. The method, then: as §2
For assay [7], the system named is Listeria monocytogenes 33090. The format is cell-based. Particulars: nisin strain; L. monocytogenes 33090. The method, then:
as §2

Assay [8] relates to Listeria monocytogenes 33116. The format is cell-based. Particulars: nisin strain; L. monocytogenes 33116. The method, then:
as §2

The subject of assay [9] is Listeria monocytogenes 33176. In kind it is cell-based. The conditions noted are these: nisin strain; L. monocytogenes 33176. The method, then:
as §2

The test system of assay [10] is Listeria monocytogenes 33186. In kind it is cell-based. The conditions noted are these: nisin strain; L. monocytogenes 33186. The method, then: as §2
Assay [11] has as its system Listeria monocytogenes 33225. In kind it is cell-based. Particulars: nisin strain; L. monocytogenes 33225. The method, then:
as §2

Assay [12] concerns Listeria monocytogenes 33411. The format is cell-based. The conditions noted are these: nisin strain; L. monocytogenes 33411. The method, then: as §2
In assay [13] the test system is Listeria monocytogenes 33423. In kind it is cell-based. The conditions noted are these: nisin strain; L. monocytogenes 33423. The method, then:
as §2

The subject of assay [14] is Listeria monocytogenes CD1038. In kind it is cell-based. Particulars: nisin strain; L. monocytogenes CD1038. The method, then:
as §2

Assay [15] relates to Listeria monocytogenes CD83. The format is cell-based. The conditions noted are these: nisin strain; L. monocytogenes CD83. The method, then: as §2
For assay [16], the system named is Listeria monocytogenes F2365. In kind it is cell-based. The conditions noted are these: nisin strain; L. monocytogenes F2365. The method, then:
as §2

In assay [17] the test system is Listeria monocytogenes LO28. In kind it is cell-based. The conditions noted are these: nisin strain; L. monocytogenes LO28. The method, then:
as §2

The test system of assay [18] is Listeria monocytogenes NRRLB 33038. In kind it is cell-based. Particulars: nisin strain; L. monocytogenes NRRLB 33038. The method, then: as §2
For assay [19], the system named is Listeria monocytogenes SLCC 4949. In kind it is cell-based. The conditions noted are these: nisin strain; L. monocytogenes SLCC 4949. The method, then: as §2
Assay [20] deals with Listeria monocytogenes SLCC 6793. In kind it is cell-based. The conditions noted are these: nisin strain; L. monocytogenes SLCC 6793. The method, then: as §2

Ends that are not written are not given here.

For the substance “NisinA M21S (ITSISLCTPGCKTGALMGCNSKTATCHCSIHVSK; not fully specified; also: lantibiotic nisin: dehydrated residues and thioether rings not placed; UniProt P13068 24-57, looked up, variant M21S) [nisin A derivative, hinge substitution M21S]”, the “zone size relative to that of the NZ9800 pCI372nisA control” value with Staph. aureus DPC5245 is 110%; in assay [1], 105%; in assay [2], 110%. Moreover, the “Bioactivity relative to control” value is listed as “+” in the assay on C. sporogenes CBC5 and “−” in the assay with L. plantarum CBC6. The “Activity score (zone)” value with Listeria innocua FH2117 is given as “+ (+, 1-5 mm zone)”; in [3], “++ (++, 6-10 mm zone)”; in assay [4], “+ (+, 1-5 mm zone)”; in [5], “++ (++, 6-10 mm zone)”; in [6] it was “++ (++, 6-10 mm zone)”; in assay [7], “+ (+, 1-5 mm zone)”. In addition, the “Activity score (zone)” value is on record as “++ (++, 6-10 mm zone)” in [8]; “++ (++, 6-10 mm zone)” in [9]; “+ (+, 1-5 mm zone)” in assay [10]; “++ (++, 6-10 mm zone)” in [11]; “++ (++, 6-10 mm zone)” in assay [12]; “+ (+, 1-5 mm zone)” in assay [13]. The “Activity score (zone)” value in [14] is “++ (++, 6-10 mm zone)”; in assay [15], “+ (+, 1-5 mm zone)”; in [16], “++ (++, 6-10 mm zone)”; in assay [17], “+++ (+++, <10 mm zone)”; in [18] it was “++ (++, 6-10 mm zone)”; in [19], “+ (+, 1-5 mm zone)”. In addition, the “Activity score (zone)” value in [20] is reported as “+++ (+++, <10 mm zone)”.

Values taken from patent US8987193B2, “Nisin derivatives and the use thereof” (University College Cork—National University of Ireland, Cork, priority 2008, dated 2015).
